target: human activated kallikrein enzyme (Homo sapiens (Human), UniProt P03952); assay: Plasma kallikrein inhibition assay with fluorogenic peptide substrate, 500 pM activated kallikrein format; format: biochemical; details: 500 pM activated kallikrein; 300 uM Pro-Phe-Arg-7-amido-4-methylcoumarin substrate; 30 min preincubation, 10 min reaction at RT; read-out: Primary Dose Response Assay: Average EC50
In short: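 Pro-Phe-Arg-7-amido-4-methylcoumarin substrate (300 uM) started reactions after a 30 min RT enzyme–inhibitor preincubation. This format used 500 pM activated human kallikrein in Tris pH 7.5 buffer with EDTA, NaCl, PEG-400 and Triton X-100. AMC fluorescence (380/460 nm) was measured after 10 min at RT.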

Sequence of human activated kallikrein enzyme (P03952 391-638): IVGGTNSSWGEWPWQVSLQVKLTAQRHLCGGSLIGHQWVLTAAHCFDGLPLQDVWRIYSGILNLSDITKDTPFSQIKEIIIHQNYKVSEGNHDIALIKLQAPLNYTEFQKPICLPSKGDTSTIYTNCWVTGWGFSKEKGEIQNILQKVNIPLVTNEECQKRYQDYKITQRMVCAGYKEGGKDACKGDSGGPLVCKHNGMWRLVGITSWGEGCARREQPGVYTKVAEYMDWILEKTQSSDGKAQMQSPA
Sequence of human activated kallikrein enzyme (P03952 20-390 partner): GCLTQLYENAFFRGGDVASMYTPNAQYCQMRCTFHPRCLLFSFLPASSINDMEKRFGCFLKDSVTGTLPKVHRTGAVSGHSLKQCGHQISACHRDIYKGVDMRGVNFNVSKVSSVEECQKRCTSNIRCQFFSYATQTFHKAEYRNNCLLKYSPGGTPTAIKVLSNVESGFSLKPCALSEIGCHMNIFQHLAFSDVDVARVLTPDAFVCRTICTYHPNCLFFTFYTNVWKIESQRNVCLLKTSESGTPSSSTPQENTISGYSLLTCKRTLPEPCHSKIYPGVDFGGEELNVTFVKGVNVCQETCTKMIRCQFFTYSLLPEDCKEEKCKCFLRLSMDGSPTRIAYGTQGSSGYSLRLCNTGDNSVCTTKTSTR

Which EC50 does the source give for `O=C(NCc1c(-n2cnnn2)ccc(Cl)c1F)c1cn(Cc2cn3cc(C4CC4)ccc3n2)nn1` [Example I-106, N-(3-chloro-2-fluoro-6-(1H-tetrazol-1-yl)benzyl)-1-((6-cyclopropylimidazo[1,2-a]pyridin-2-yl)methyl)-1H-1,2,3-triazole-4-carboxamide] here?
The EC50 was ≤ 1 nM.

With `COc1ccc(C#N)c(CNC(=O)c2cn(Cc3cn4cc(C5CC5)cc(CCC(=O)O)c4n3)nn2)c1F` [Example I-107, 3-(2-((4-((6-cyano-2-fluor-3-methoxybenzyl)carbamoyl)-1H-1,2,3-triazol-1-yl)methyl)-6-cyclopropylimidazo[1,2-a]pyridin-8-yl)propanoic Acid] as the compound, how does the EC50 read?
Its EC50 is ≤ 1 nM.

For `CCOC(=O)CCc1cc(C2CC2)cn2cc(Cn3cc(C(=O)NCc4c(C#N)ccc(OC)c4F)nn3)nc12` [Example I-108, ethyl 3-(2-((4-((6-cyano-2-fluoro-3-methoxybenzyl)carbamoyl)-1H-1,2,3-triazol-1-yl)methyl)-6-cyclopropylimidazo[1,2-a]pyridin-8-yl)propanoate], which EC50 is on record?
Its EC50 is 1 to 10 nM.

How did the EC50 turn out when `O=C(O)CCc1cc(C2CC2)cn2cc(Cn3cc(C(=O)NCc4c(-n5cnnn5)ccc(Cl)c4F)nn3)nc12` [Example I-109, 3-(2-((4-((3-choro-2-fluoro-6-(1H-tetrazol-1-yl)benzyl)carbamoyl)-1H-1,2,3-triazol-1-yl)methyl)-6-cyclopropylimidazo[1,2-a]pyridin-8-yl)propanoic Acid] was run?
Its EC50 is ≤ 1 nM.

With `N#CNc1ccc(Cl)c(F)c1CNC(=O)c1cn(Cc2cn3cc(C4CC4)cc(CCC(=O)O)c3n2)nn1` [Example I-110, 3-(2-((4-((3-chloro-6-cyanamido-2-fluorobenzyl)carbamoyl)-1H-1,2,3-triazol-1-yl)methyl)-6-cyclopropylimidazo[1,2-a]pyridin-8-yl)propanoic Acid] as the compound, how does the EC50 read?
The EC50 was 1 to 10 nM.

How did the EC50 turn out when `Cc1cc(C(=N)N)cc(C)c1CNC(=O)c1cn(Cc2cn3cc(C4CC4)cc(C(=O)O)c3n2)nn1` [Example I-111, 2-((4-((4-carbamimidoyl-2,6-dimethylbenzyl)carbamoyl)-1H-1,2,3-triazol-1-yl)methyl)-6-cyclopropylimidazo[1,2-a]pyridine-8-carboxylic Acid] was run?
Its EC50 is ≤ 1 nM.

With `CCOC(=O)c1cc(C2CC2)cn2cc(Cn3cc(C(=O)NCc4c(C)cc(C(=N)N)cc4C)nn3)nc12` [Example I-112, ethyl 2-((4-((4-carbamimidoyl-2,6-dimethylbenzyl)carbamoyl)-1H-1,2,3-triazol-1-yl)methyl)-6-cyclopropylimidazo[1,2-a]pyridine-8-carboxylate] as the compound, how does the EC50 read?
Its EC50 is ≤ 1 nM.

For `CCOC(=O)CCc1cc(C2CC2)cn2cc(Cn3cc(C(=O)NCc4c(-n5cnnn5)ccc(Cl)c4F)nn3)nc12` [Example I-113, ethyl 3-(2-((4-((3-chloro-2-fluoro-6-(1H-tetrazol-1-yl)benzyl)carbamoyl)-1H-1,2,3-triazol-1-yl)methyl)-6-cyclopropylimidazo[1,2-a]pyridin-8-yl)propanoate], which EC50 is on record?
Its EC50 is ≤ 1 nM.

Which EC50 does the source give for `O=C(NCc1c(N2CC3(COC3)C2)ccc(Cl)c1F)c1cnn(Cc2cn3cc(C4CC4)ccc3n2)c1` [Example I-114, N-(3-chloro-2-fluoro-6-(2-oxa-6-azaspiro[3.3]heptan-6-yl)benzyl)-1-((6-cyclopropylimidazo[1,2-a]pyridin-2-yl)methyl)-1H-pyrazole-4-carboxamide] here?
The EC50 was 100 to 2000 nM.

With `Cc1cc(C(=N)N)cc(C)c1CNC(=O)c1cn(Cc2cn3cc(C4CC4)ccc3n2)nn1` [Example I-115, N-(4-carbamimidoyl-2,6-dimethylbenzyl)-1-((6-cyclopropylimidazo[1,2-a]pyridin-2-yl)methyl)-1H-1,2,3-triazole-4-carboxamide] as the compound, how does the EC50 read?
The EC50 was ≤ 1 nM.

With `O=C(NCc1c(-n2cnnn2)ccc(Cl)c1F)c1cnn(Cc2cn3cc(C4CC4)ccc3n2)c1` [Example I-116, N-(3-chloro-2-fluoro-6-(1H-tetrazol-1-yl)benzyl)-1-((6-cyclopropylimidazo[1,2-a]pyridin-2-yl)methyl)-1H-pyrazole-4-carboxamide] as the compound, how does the EC50 read?
Its EC50 is ≤ 1 nM.

— patent publication US11787796B2, “Plasma Kallikrein inhibitors and uses thereof” (Takeda Pharmaceutical Company Limited, priority 2019, dated 2023)
